Results as given in article PMC4006998 (Nature chemical biology, 2009).

Key:
CTX-M β-lactamase = CTX-M β-lactamase (Escherichia coli, UniProt Q9L5C8); format: biochemical; details: Ki AmpC versus Ki CTX-M
AmpC β-lactamase [1] = biological target: T1, AmpC β-lactamase (Escherichia coli, UniProt P00811); details: at relevant concentrations; no reference given; cited from earlier work
AmpC β-lactamase [2] = biological target: T1, AmpC β-lactamase; format: biochemical; details: read-out: Km of nitrocefin for AmpC; substrate; 100 mM Tris-HCl pH 7.0
[3] = system: O=C(Cc1cccs1)N[C@@H]1C(=O)N2C(C(=O)O)=C(/C=C/c3ccc([N+](=O)[O-])cc3[N+](=O)[O-])CS[C@H]12; assay: purified protein, by the assay type; details: other: substrate, 100 mM Tris-HCl pH 7.0, 19.0 °C

T1 sequence (P00811 20-377): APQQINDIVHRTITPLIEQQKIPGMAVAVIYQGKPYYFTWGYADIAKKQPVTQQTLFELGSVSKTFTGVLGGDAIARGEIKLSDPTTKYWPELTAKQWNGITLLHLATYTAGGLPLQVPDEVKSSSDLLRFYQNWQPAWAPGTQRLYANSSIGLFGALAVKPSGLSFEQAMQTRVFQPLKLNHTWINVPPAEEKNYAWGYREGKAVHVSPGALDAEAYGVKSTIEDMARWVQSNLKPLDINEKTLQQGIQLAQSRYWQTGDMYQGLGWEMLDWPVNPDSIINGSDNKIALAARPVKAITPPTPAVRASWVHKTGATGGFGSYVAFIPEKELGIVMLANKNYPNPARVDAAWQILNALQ

## O=C(Nc1cccc(-c2nnn[nH]2)c1)c1cccc(F)c1 [Compound 12]
CTX-M β-lactamase
  specificity (CTX-M over AmpC): over 100 fold

## O=C(O)[C@H]1/C(=C/CO)O[C@@H]2CC(=O)N21 [clavulanate]
AmpC β-lactamase [1]
  inhibition of AmpC: does not inhibit AmpC at relevant concentrations

## O=C(Cc1cccs1)N[C@@H]1C(=O)N2C(C(=O)O)=C(/C=C/c3ccc([N+](=O)[O-])cc3[N+](=O)[O-])CS[C@H]12 [nitrocefin]
AmpC β-lactamase [2]
  Km: 400 µM

## CTX-M β-lactamase (Escherichia coli)
[3]
  Km: 11.6 µM
